# In patent publication US8435561B2 (Besins Healthcare Luxembourg Sarl, priority 2001, dated 2013):
# Test: Comparative particle size study (Mastersizer 2000 laser particle sizer)
# Format: physicochemical
# Details: in sesame seed oil, olive oil, colza oil or almond oil, compared to that obtained in peanut oil
compound,measurement,value
"CC(=O)[C@H]1CC[C@H]2[C@@H]3CCC4=CC(=O)CC[C@]4(C)[C@H]3CC[C@]12C [Micronized Progesterone, progesterone]",size distribution of progesterone,comparable
